# Measurements as given in paper PMC4798226, “Streptococcus pneumoniae Cell-Wall-Localized Phosphoenolpyruvate Protein Phosphotransferase Can Function as an Adhesin: Identification of Its Host Target Molecules and Evaluation of Its Potential as a Vaccine” (PLoS ONE, 2016).
# Ends that are not written are not given here.
# Experiments:
# [1] = tested on: S. pneumoniae strain WU2 adhesion to A549 cells; assay: Inhibition of adhesion of S. pneumoniae strain WU2 to A549 cells; format: cell-based, Streptococcus pneumoniae; details: CFU counting
# Method: (§1) A549 and D562 cells were cultured on fibronectin-coated 96-well plates (Fig 2 and S2 Fig) or on Ibidi 8 well chambers (Ibidi GmbH, Planegg/Martinsried, Germany; Figs 3, 4 and 5) or on 96-well plates without fibronectin coating (Figs 7 and 8 and S3 Fig), as previously described. Briefly, the cells were seeded at 5 × 10^4 cells/well in DMEM supplemented with 10% fetal calf serum (FCS) (without antibiotics). Twenty four hours later, the cells (~10^5 cells/well) were blocked with 0.5% gelatin for 1 h. rPtsA (0–500 nM) was then added to the cultured cells for 1 h of incubation. Excess protein was removed, and S. pneumoniae bacteria at a MOI of ~10:1 were added for additional 1 h of incubation. The inoculum size was verified in each experiment. […] Following the incubation, excess bacteria were removed, and cells were detached with trypsin and plated onto blood agar plates for counting. All the inhibitors were used at concentrations below their toxic concentrations either to the bacteria or to the cells. Keyhole limpet hemocyanin (KLH) protein was used as a negative control. Experiments were conducted in triplicates and repeated on 3 different occasions.
# (§2) Inhibition of adhesion to A549 cells by anti-rPtsA antiserum, phages or peptides was performed as previously described. Briefly, bacteria were incubated for 1 h with rabbit anti-rPtsA antiserum, the phages, or the selected peptides. The bacteria were then added to the cultured human cells for an additional hour. Following this incubation, excess bacteria were removed, and the procedure was continued as described above. All the inhibitors were used at concentrations below their toxic concentrations either to the bacteria or to the cells. Negative controls included pre-immune serum, phage carrying no insert or a non-inhibitory insert, and a scrambled peptide. Each experiment was performed in triplicates and repeated on 3 different occasions and a representative experiment is presented.
# rPtsA = rPtsA (Streptococcus pneumoniae serotype 4, UniProt A0A0H2UQ90); assay: biochemical; format: binding
# Method: In all cases, 16 serial dilutions of each putative receptor-derived peptide (~90 nM–3.175 mM) were mixed with a constant concentration of 335 nM labeled rPtsA protein. The normalized change in the fluorescence of the labeled rPtsA protein was plotted against the peptide concentration, and a fit was computed by the NTP program. The experiments were performed in triplicate.
# rPtsA labeled with fluorescent NT-495 dye at a constant concentration of 335 nM was mixed with sixteen serial dilutions (~90 nM–3.175 mM) of peptides derived from PCDH19, MMRN1, Eps1, Int β and BMPER. Contactin 4, was used as a negative control. MST analysis was performed using Monolith NT.115 (NanoTemper Technologies GmbH, München, Germany). The normalized change in the fluorescence of bound and unbound labeled rPtsA (ΔF) is indicative of the peptide binding. Plotting ΔF vs. peptide concentration facilitated the generation the dissociation curves, computed by the NTP program. In this way the Kd, reflecting the affinity of each of the peptides for rPtsA, was obtained. […] Each experiment was performed in triplicate.
# [2] = tested on: S. pneumoniae adhesion to A549 cells; assay: Inhibition of adhesion of S. pneumoniae to A549 cells, strain not stated (scrambled peptide control); format: cell-based, Streptococcus pneumoniae; details: bacteria treated 1 h with peptide, added to A549 cells for 1 h; CFU counting; strain not printed (Fig 8K)
# Method: as §1
# Fig 8 Inhibition of adhesion of S. pneumoniae cells to A549 cells by target-derived peptides. […]
# [3] = tested on: S. pneumoniae strain 3.8DW adhesion to A549 cells; assay: Inhibition of adhesion of S. pneumoniae strain 3.8DW to A549 cells; format: cell-based, Streptococcus pneumoniae; details: bacteria treated 1 h with peptide, added to A549 cells (plates without fibronectin coating) for 1 h; CFU counting
# Method: as §1, §2
# [4] = tested on: S. pneumoniae strain D39 adhesion to A549 cells; assay: Inhibition of adhesion of S. pneumoniae strain D39 to A549 cells; format: cell-based, Streptococcus pneumoniae; details: bacteria treated 1 h with peptide, added to A549 cells (plates without fibronectin coating) for 1 h; CFU counting
# Method: as §1
# (§3) Inhibition of adhesion to A549 cells by anti-rPtsA antiserum, phages or peptides was performed as previously described. Briefly, bacteria were incubated for 1 h with rabbit anti-rPtsA antiserum, the phages, or the selected peptides. […]
# [5] = tested on: S. pneumoniae strain R6 adhesion to A549 cells; assay: Inhibition of adhesion of S. pneumoniae strain R6 to A549 cells; format: cell-based, Streptococcus pneumoniae; details: bacteria treated 1 h with peptide, added to A549 cells (plates without fibronectin coating) for 1 h; CFU counting
# Method: as §1, §3
# [6] = tested on: S. pneumoniae strain WU2 adhesion to Detroit 562 cells; assay: Inhibition of adhesion of S. pneumoniae strain WU2 to Detroit 562 cells; format: cell-based, Streptococcus pneumoniae; details: bacteria treated 1 h with peptide, added to Detroit 562 cells for 2 h; CFU counting; 3–6 replicates
# S. pneumoniae strain WU2 = assay: Nasopharyngeal and lung colonization of CBA/N^xid mice after intranasal inoculation of peptide-pretreated strain WU2; format: in vivo, Streptococcus pneumoniae
# Method: BALB/c (highly resistant to S. pneumonia) or CBA/N^xid (highly susceptible to S. pneumoniae) mice strains were immunized subcutaneously (SC) with 25 μg of rPtsA emulsified with complete Freund’s adjuvant (CFA) and subsequently boosted (days 14 and 28) with incomplete Freund’s adjuvant (IFA). On day 42, the BALB/c and CBA/N^xid mice were challenged intranasally (IN), under deep anesthesia using Isoflurane (Piramal Critical Care Inc., PA, USA), with a sublethal dose of strain WU2 (5 × 10^7 and 5 ×x 10^5, respectively). Mice were humanely sacrificed 3 and 24 h later by CO2 asphyxiation, as recommended by the AVMA Guidelines for Euthanasia in Animals: 2013 Edition (https://www.avma.org/KB/Policies/Documents/euthanasia.pdf). Strain WU2 cells were pretreated with the respective peptides and then inoculated IN into adult CBA/N^xid mice. Mice were euthanized 3, 24 or 48 h later with CO2. The nasopharynx and right lobe lung were excised, homogenized and plated onto blood agar plates for bacterial colony counting. For survival experiments, after an immunization regime similar to that described above, BALB/c or CBA/N^xid mice were challenged with a lethal dose of strain WU2 either IN (10^8 CFU and 10^6 CFU, respectively) or intravenously (10^4 CFU). […] The following criteria were considered sufficient evidence of distress to warrant such intervention in order to minimize pain and suffering of the animals: severe weight loss (20% body weight); reluctance or inability to move freely; appearance of bristle fur; social disengagement; refusal or inability to eat or drink. No analgesic treatment was provided, as such treatment may alter the immune response and may independently affect the outcome of the experiments.
# Strain WU2 cells were pretreated with Eps 1, BMPER and PCDH19 peptides and then inoculated IN into adult CBA/N^xid mice. Mice were euthanized 3, 24 or 48 h later. The nasopharynx and lungs were excised, homogenized and plated onto blood agar plates for counting. As a control, another group of mice was injected with bacteria treated ex vivo for 1 h with PBS alone.
# Fig 9 Effects of target-derived peptides on nasopharyngeal and lung colonization and survival in mice. Strain WU2 cells were pretreated with peptide and then inoculated IN into adult CBA/N^xid mice. As a control, another group of mice was injected with bacteria treated ex vivo for 1 h with PBS alone. Mice were euthanized 3, 24 or 48 h later. The nasopharynx and lungs were excised, homogenized and plated onto blood agar plates for counting. […]
# [7] = biological target: HAT-tagged recombinant phosphoenolpyruvate protein phosphotransferase (rPtsA) (Streptococcus pneumoniae (serotype 3 strain WU2)); assay: MST; labeled rPtsA (NT-495 dye) constant at 335 nM; 16 serial dilutions of each peptide (~90 nM–3.175 mM); Monolith NT.115; triplicate
# [8] = bacteria incubated 1 h with antiserum or phage, then added to gelatin-blocked A549 cells (fibronectin-coated plates) for 1 h
# [9] = bacteria treated 1 h with peptide, added to A549 cells (96-well plates without fibronectin coating) for 1 h
# [10] = WU2 pretreated with Eps 1 (14.7 μM), versus sham-treated (PBS) bacteria
# [11] = WU2 pretreated with peptide (Eps 1 14.7 μM; BMPER 7 and 14 μM; PCDH19 14.7 and 27.4 μM), versus sham-treated bacteria
molecule,measurement,setting,value
ADDESPEMKPGX [phage D8],Inhibition of adhesion of strain WU2 to A549 cells,[1]; [8],inhibited
ADGGVPV [phage H10],Inhibition of adhesion of strain WU2 to A549 cells,[1]; [8],inhibited
same,Reduction in adhesion of strain WU2 to A549 cells,"[1]; phage incubated with strain WU2 for 1 h, added to A549 cells, in comparison to adhesion of bacteria without inhibitors",75%
AVVVNDANRTRK [phage D3],Inhibition of adhesion of strain WU2 to A549 cells,[1]; [8],inhibited
DQRPAXRRMYRA [phage D10],Inhibition of adhesion of strain WU2 to A549 cells,[1]; [8],inhibited
DQVARIPVIRRV [Intβ4],Kd,rPtsA,115 ± 20.5 µM
LDSIRIIVIRRI [phage H9],Inhibition of adhesion of strain WU2 to A549 cells,[1]; [8],inhibited
LPADWATTLMVCSSK [scrambled peptide],Inhibition of adhesion of S. pneumoniae to A549 cells,[2],No significant inhibition
SDGGVPV [Eps 1],Inhibition of adhesion of strain WU2 to A549 cells,[1]; [9],significantly inhibited
same,Inhibition of adhesion of strain 3.8DW to A549 cells,[3],significantly inhibited
same,Inhibition of adhesion of strain D39 to A549 cells,[4],significantly inhibited
same,Inhibition of adhesion of strain R6 to A549 cells,[5],significantly inhibited
same,Inhibition of adhesion of strain WU2 to Detroit 562 cells,[6],significant inhibition
same,"Bacterial load in the lungs, 3 h post inoculation",S. pneumoniae strain WU2; [10],significant reduction
same,"Bacterial load in the nasopharynx, 3 h post inoculation",S. pneumoniae strain WU2; [10],significant reduction
same,"Bacterial load in the lungs, 48 h post inoculation",S. pneumoniae strain WU2; [11],significant reduction
same,"Bacterial load in the nasopharynx, 48 h post inoculation",S. pneumoniae strain WU2; [11],significant reduction
TEQVSDQKNAPA [MMRN1],Inhibition of adhesion of strain WU2 to A549 cells,[1]; [9],significant inhibition
same,Inhibition of adhesion of strain 3.8DW to A549 cells,[3],significant inhibition
TXQVSNHKNHTN [phage E6],Inhibition of adhesion of strain WU2 to A549 cells,[1]; [8],inhibited
VLVKNDARRTRS [BMPER],Kd,rPtsA,21 ± 5.49 µM
VVVSDATRVRVA [Col VII],Inhibition of adhesion of strain WU2 to A549 cells,[1]; [9],significant inhibition
same,Inhibition of adhesion of strain 3.8DW to A549 cells,[3],significant inhibition
"WECKANGRPKPTY [Contactin 4-derived peptide, reference compound]",Kd (affinity of rPtsA binding to peptide),"rPtsA; MST, Monolith NT.115, 335 nM NT-495-labeled rPtsA, 16 serial dilutions of peptide ~90 nM–3.175 mM, fit by NTP program, triplicate",a fit could not be generated
DGGVPML [PCDH19-derived peptide],Kd,[7],58 µM
DQVARIPVIRRV [Int β4-derived peptide],Kd,[7],115 µM
TEQVSDQKNAPA [MMRN1-derived peptide],Kd,[7],391 µM
VLVKNDARRTRS [BMPER-derived peptide],Kd,[7],21 µM
SDGGVPV [Eps 1-derived peptide],Kd,[7],43.9 µM
